Measurements from US10576060B2, “FK506 derivative maintaining nerve regeneration activity without immunosuppressive activity, and use thereof” (INTRON BIOTECHNOLOGY CO., LTD, priority 2014, dated 2020).
“Also recorded” adds a separate entry of the source.

Tests used:
[1] = tested on: CD3/CD28-activated human T-cells; assay: In vitro T-cell activity: interleukin-2 secretion by CD3/CD28-activated human T-cells; assay type: cell-based; conditions: compound 0.1 nM, 16 to 20 hours
Method: A relative immunosuppressive property of the compound compared to authentic FK506 was determined using T-lymphocytes as described in Mo, S. J. et al. (J. Am. Chem. Soc. 2011, 133, 976-985). Simply, interleukin-2 secretions were quantified after treating the compound (0.1 nM) with CD3/CD28-activated human T-cells with the compounds for 16 to 20 hours.
A relative immunosuppressive property of 31-O-demethyl-FK506 compared to authentic FK506 was determined using the same method as Example 3. (1).

[2] = tested on: rat pheochromocytoma cells (PC12); assay: Nerve regeneration activity: neurite outgrowth in NGF-treated PC12 cells; assay type: cell-based; conditions: 10 nM compound with NGF 10 ng/mL, 96 hours
Method: A relative nerve regeneration activity of the compound, compared to authentic FK506, was determined using rat pheochromocytoma cells (PC12) by the method described in Mo, S. J. et al. (J. Am. Chem. Soc. 2011, 133, 976-985). The PC12 cells were treated with nerve growth factor (NGF; KOMA Biotech; 10 ng/mL) which induces neurite outgrowth for 96 hours. 10 nM of FK506 or 9-deoxo-prolyl-FK506 was treated together or excluded. The neurite lengths were measured on photographic prints by the method Revill, W. P. et al. described (J. Pharmacol. Exp. Ther. 2002, 302, 1278-1285).
A relative neuroregenerative property of 31-O-demethyl-FK506 compared to authentic FK506 was determined using the same method as Example 3. (2).
A relative nerve regeneration property of 9-deoxo-31-O-demethyl-FK506 compared to authentic FK506 was determined using the same method as Example 3. (2).

SMILES | interleukin-2 secretion (immunosuppressive activity) [1] | neurite outgrowth promotion (neurite length) [2]
C=CC[C@@H]1/C=C(\C)C[C@H](C)C[C@H](OC)[C@H]2O[C@@](O)(CC(=O)N3CCC[C@H]3C(=O)O[C@H](/C(C)=C/[C@@H]3CC[C@@H](O)[C@H](OC)C3)[C@H](C)[C@@H](O)CC1=O)[C@H](C)C[C@@H]2OC [9-deoxo-prolyl-FK506] | significantly increased to reach that of the normal group; also recorded: increased significantly to reach a normal level | excellent effect on neurite outgrowth promotion; also recorded: promotes neurite outgrowth in PC12 cells
C=CC[C@@H]1/C=C(\C)C[C@H](C)C[C@H](OC)[C@H]2O[C@@](O)(C(=O)C(=O)N3CCCC[C@H]3C(=O)O[C@H](/C(C)=C/[C@@H]3CC[C@@H](O)[C@H](O)C3)[C@H](C)[C@@H](O)CC1=O)[C@H](C)C[C@@H]2OC [31-O-demethyl-FK506] | significantly increased to reach that of the normal group; also recorded: increased significantly to reach a normal level | excellent effect on neurite outgrowth promotion; also recorded: promotes neurite outgrowth in PC12 cells
C=CC[C@@H]1/C=C(\C)C[C@H](C)C[C@H](OC)[C@H]2O[C@@](O)(CC(=O)N3CCCC[C@H]3C(=O)O[C@H](/C(C)=C/[C@@H]3CC[C@@H](O)[C@H](O)C3)[C@H](C)[C@@H](O)CC1=O)[C@H](C)C[C@@H]2OC [9-deoxo-31-O-demethyl-FK506] | significantly increased to reach that of the normal group; also recorded: increased significantly to reach a normal level | excellent effect on neurite outgrowth promotion; also recorded: promotes neurite outgrowth in PC12 cells
C=CC[C@@H]1/C=C(\C)C[C@H](C)C[C@H](OC)[C@H]2O[C@@](O)(C(=O)C(=O)N3CCCC[C@H]3C(=O)O[C@H](/C(C)=C/[C@@H]3CC[C@@H](O)[C@H](OC)C3)[C@H](C)[C@@H](O)CC1=O)[C@H](C)C[C@@H]2OC [FK506] | decreased as much as the number of CD3/CD28-inactivated human T-cells | 
